From ChEMBL document CHEMBL1201862, “PubChem BioAssay data set” (2004)
Activity calls are given as the source filed them.

Assays:
[1] = biological target: T1, Adenosylmethionine-8-amino-7-oxononanoate aminotransferase (Mycobacterium tuberculosis, UniProt P9WQ81); assay: Mycobacterium tuberculosis BioA enzyme inhibitor Measured in Biochemical System Using Plate Reader - 2163-02_Inhibitor_Dose_CherryPick_Activity.; assay type: functional, Mycobacterium tuberculosis UT205
T1 sequence (P9WQ81 whole entry): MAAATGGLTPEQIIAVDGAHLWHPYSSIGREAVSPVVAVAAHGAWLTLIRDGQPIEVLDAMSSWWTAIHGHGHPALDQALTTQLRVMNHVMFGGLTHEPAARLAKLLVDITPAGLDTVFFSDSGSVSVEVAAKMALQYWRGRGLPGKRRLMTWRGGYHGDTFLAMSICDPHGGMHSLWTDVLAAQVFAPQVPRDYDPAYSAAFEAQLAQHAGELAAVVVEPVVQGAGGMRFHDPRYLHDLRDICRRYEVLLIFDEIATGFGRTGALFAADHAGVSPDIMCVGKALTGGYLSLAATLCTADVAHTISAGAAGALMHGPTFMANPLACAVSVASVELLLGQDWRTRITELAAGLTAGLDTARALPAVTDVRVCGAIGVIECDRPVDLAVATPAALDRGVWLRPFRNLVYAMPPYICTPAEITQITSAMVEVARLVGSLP

[2] = AlphaScreen signal interference compounds, dose response, artefact control for ARNT-TACC3 interaction inhibitor project, biochemical, luminescence, cherry-pick (AID 651705); assay type: functional;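 note: AlphaScreen bead proximity signal that flags compounds interfering with the detection technology; potency reflects signal decrease which marks the compound as an assay artifact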
Melanocortin receptor 4 = Melanocortin receptor 4 (Homo sapiens, UniProt P32245); assay: MC4R antagonist potency on cAMP, dose response, cell-based, TR-FRET, biased antagonists (AID 602298); assay type: functional;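 note: antagonist potency against agonist-stimulated cAMP production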
Sequence of Melanocortin receptor 4 (P32245 whole entry): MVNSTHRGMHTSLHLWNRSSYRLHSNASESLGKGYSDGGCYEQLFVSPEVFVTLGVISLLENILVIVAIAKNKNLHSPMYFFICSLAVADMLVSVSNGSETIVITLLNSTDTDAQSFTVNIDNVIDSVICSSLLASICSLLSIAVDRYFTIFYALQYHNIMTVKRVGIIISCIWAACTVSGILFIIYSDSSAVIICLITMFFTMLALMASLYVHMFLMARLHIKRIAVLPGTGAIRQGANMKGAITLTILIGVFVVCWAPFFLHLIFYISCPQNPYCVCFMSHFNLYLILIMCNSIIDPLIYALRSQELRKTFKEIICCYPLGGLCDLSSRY

[3] = A Cell Based Secondary Assay To Explore Cytotoxicity of Compounds that Sensitize Mycobacterium Tuberculosis to Beta-Lactam Antibiotics.; assay type: functional
[4] = nonselective inhibitors of cellular cAMP signaling, dose response, counter-screen for MC4R biased antagonist project, cell-based, TR-FRET cAMP detection (AID 602305); assay type: functional;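 note: U2OS cells stimulated with forskolin near its EC80 as the cAMP inducer; potency is for inhibition of forskolin-stimulated cAMP signaling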
[5] = biological target: T2, High affinity choline transporter 1 (Homo sapiens, UniProt Q9GZV3); assay: CHT inhibitors, dose response, cell-based, 10-point CRC, membrane potential dye (AID 588401); assay type: functional;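 note: membrane potential dye fluorescence of choline-evoked depolarization via CHT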
T2 sequence (Q9GZV3 whole entry): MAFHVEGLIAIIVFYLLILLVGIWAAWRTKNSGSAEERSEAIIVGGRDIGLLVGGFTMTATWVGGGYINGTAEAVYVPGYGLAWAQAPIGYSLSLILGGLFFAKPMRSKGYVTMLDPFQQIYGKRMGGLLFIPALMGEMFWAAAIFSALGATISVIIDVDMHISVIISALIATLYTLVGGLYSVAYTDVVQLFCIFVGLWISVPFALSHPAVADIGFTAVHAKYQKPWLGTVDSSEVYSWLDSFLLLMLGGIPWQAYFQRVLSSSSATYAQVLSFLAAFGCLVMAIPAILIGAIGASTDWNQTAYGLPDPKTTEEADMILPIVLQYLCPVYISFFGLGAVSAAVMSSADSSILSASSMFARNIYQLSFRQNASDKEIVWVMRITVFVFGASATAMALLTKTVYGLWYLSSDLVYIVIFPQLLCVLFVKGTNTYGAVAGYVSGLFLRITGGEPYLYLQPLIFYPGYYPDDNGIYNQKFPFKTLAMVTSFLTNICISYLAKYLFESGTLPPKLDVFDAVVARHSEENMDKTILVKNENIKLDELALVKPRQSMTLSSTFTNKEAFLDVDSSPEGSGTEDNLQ

[6] = biological target: T2, High affinity choline transporter 1; assay: CHT inhibitors, dose response, cell-based, 5-point CRC, membrane potential dye (AID 504840); assay type: functional
[7] = biological target: T3, Microphthalmia-associated transcription factor (Homo sapiens, UniProt O75030); assay: TRPM1 promoter luciferase signal decrease, dose response, MITF inhibitor project, cell-based, SK-MEL-5, cherry-picked, set 3 (AID 493073); assay type: functional
T3 sequence (O75030 whole entry): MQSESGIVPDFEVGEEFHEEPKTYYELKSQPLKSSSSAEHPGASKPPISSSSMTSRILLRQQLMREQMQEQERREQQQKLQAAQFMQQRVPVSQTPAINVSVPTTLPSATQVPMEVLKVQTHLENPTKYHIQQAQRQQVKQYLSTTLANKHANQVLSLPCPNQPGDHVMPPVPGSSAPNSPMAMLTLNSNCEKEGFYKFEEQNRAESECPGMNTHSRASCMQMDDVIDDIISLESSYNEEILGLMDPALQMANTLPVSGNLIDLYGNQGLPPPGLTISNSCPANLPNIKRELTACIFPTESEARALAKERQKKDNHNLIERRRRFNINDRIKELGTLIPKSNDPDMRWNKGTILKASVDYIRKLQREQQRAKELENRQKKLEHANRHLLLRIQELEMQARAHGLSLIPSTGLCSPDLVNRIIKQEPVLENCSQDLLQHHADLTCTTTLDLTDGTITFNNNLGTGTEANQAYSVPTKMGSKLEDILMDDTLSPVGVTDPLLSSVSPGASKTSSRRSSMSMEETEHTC

[8] = biological target: DNA (cytosine-5)-methyltransferase 1 (Homo sapiens, UniProt P26358); assay: DNMT1 methyltransferase inhibitors, confirmation, biochemical, fluorescent molecular beacon (AID 602386); assay type: functional
Sequence of DNA (cytosine-5)-methyltransferase 1 (P26358 whole entry, the tested form may be a part): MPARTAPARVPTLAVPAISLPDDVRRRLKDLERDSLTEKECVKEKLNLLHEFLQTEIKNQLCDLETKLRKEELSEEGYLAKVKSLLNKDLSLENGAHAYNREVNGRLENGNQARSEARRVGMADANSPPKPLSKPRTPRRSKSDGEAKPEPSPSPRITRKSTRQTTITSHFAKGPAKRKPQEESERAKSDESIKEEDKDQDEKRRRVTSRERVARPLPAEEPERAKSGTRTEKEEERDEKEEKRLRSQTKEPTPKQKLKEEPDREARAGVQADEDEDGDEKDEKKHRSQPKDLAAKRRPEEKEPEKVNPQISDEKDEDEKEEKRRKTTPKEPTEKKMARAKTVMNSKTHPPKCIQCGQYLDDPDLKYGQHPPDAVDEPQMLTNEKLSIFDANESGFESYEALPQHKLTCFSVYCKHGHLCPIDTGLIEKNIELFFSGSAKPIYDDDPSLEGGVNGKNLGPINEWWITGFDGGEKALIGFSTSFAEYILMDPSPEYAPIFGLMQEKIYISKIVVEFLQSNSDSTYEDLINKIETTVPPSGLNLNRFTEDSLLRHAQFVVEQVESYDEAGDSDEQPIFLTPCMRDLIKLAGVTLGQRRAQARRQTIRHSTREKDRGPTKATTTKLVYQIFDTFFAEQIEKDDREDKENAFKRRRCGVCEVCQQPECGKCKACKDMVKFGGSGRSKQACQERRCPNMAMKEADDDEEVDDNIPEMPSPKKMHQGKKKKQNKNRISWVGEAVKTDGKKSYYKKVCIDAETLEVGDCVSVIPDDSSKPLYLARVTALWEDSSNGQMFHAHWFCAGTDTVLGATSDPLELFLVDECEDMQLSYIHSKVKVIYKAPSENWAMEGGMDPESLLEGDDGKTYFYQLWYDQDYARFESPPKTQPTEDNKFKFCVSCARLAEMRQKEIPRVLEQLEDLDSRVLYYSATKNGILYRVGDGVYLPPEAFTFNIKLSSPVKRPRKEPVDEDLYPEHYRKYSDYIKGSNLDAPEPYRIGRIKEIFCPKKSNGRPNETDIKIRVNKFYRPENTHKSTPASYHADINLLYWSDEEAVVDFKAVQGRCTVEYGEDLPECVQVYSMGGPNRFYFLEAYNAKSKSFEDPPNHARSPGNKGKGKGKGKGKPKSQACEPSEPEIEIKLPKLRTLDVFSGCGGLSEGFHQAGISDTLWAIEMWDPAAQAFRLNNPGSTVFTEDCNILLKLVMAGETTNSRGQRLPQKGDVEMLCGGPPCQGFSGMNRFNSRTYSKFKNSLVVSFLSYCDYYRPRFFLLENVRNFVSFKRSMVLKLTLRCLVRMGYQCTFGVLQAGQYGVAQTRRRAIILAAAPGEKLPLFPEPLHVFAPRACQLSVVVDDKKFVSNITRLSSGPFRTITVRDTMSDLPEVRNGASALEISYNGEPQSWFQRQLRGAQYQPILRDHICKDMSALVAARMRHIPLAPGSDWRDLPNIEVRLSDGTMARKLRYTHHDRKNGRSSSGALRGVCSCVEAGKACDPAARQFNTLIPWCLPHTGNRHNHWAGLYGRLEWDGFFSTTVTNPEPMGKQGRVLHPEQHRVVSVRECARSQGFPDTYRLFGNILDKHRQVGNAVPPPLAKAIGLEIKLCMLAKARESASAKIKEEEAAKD

[9] = biological target: T4, RNA-binding protein pos-1 (Caenorhabditis elegans, UniProt G5EF15); assay: inhibitors of POS-1/mex-3 RNA binding, dose response, biochemical, fluorescence polarization (AID 1964);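 note: purified POS-1 fused to maltose binding protein made in E. coli; potency of compounds blocking POS-1 binding to fluorescent RNA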
T4 sequence (G5EF15 whole entry): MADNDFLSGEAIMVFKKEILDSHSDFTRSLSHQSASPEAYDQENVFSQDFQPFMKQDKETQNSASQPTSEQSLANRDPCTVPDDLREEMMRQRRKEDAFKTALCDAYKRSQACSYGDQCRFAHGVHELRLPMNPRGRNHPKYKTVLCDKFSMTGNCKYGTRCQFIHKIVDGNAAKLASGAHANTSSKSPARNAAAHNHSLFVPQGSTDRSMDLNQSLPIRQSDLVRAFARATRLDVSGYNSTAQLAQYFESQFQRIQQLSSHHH

[10] = biological target: T5, Zinc finger protein mex-5 (Caenorhabditis elegans, UniProt Q9XUB2); assay: MEX-5/TCR-2 RNA interaction inhibitors, dose response, biochemical, C. elegans, fluorescence polarization (AID 1960)
T5 sequence (Q9XUB2 whole entry): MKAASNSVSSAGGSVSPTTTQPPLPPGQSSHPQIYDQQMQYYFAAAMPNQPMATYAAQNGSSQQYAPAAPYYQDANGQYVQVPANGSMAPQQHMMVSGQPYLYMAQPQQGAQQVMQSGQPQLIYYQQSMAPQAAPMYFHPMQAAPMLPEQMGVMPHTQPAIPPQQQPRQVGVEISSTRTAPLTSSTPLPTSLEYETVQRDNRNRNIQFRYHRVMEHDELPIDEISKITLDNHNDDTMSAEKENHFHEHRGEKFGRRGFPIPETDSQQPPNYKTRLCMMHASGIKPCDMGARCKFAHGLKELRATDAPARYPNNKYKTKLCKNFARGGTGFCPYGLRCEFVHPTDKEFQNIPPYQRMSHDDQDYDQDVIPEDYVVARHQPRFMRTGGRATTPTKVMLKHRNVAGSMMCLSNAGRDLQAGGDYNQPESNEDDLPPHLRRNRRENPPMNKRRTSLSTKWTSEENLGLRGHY

[11] = biological target: T6, Mitochondrial peptide methionine sulfoxide reductase (Bos taurus, UniProt P54149); assay type: functional;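 note: absorbance read-out, biochemical high-throughput dose-response screen for MsrA inhibitors, confirmatory; recombinant bovine MsrA coupled to E. coli TrxB with NADPH and selenocystamine; potency is for inhibitors of MsrA activity on DMSO substrate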
T6 sequence (P54149 whole entry): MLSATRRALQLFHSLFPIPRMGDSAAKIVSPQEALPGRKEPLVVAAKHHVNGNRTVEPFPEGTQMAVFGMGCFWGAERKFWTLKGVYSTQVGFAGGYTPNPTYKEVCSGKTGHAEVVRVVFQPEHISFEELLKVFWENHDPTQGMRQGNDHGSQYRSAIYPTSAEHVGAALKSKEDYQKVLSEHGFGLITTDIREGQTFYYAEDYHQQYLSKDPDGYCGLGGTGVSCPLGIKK

[12] = biological target: T7, Probable nicotinate-nucleotide adenylyltransferase (Staphylococcus aureus (strain N315), UniProt P65502); assay type: functional, Staphylococcus aureus subsp. aureus N315; details: read-out: IC50_Mean;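 for IC50 Mean: confirmatory dose-response retesting of NadD inhibitor hits first found in an ultra-high-throughput screen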
T7 sequence (P65502 whole entry): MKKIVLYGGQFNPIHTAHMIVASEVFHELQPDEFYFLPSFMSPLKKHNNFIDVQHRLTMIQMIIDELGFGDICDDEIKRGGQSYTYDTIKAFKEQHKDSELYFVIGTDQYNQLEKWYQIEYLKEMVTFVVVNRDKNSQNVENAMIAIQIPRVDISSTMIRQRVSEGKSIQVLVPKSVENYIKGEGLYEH

[13] = biological target: T7, Probable nicotinate-nucleotide adenylyltransferase; assay type: functional, Staphylococcus aureus subsp. aureus N315
Aminopeptidase N = biological target: T8, Aminopeptidase N (Plasmodium falciparum FcB1/Columbia, UniProt O96935); assay: P. falciparum M1AAP inhibitors, biochemical, fluorogenic H-Leu-NHMec substrate, 1536-well (AID 1445); design: species or system Plasmodium falciparum 3D7, 3D7
T8 sequence (O96935 whole entry): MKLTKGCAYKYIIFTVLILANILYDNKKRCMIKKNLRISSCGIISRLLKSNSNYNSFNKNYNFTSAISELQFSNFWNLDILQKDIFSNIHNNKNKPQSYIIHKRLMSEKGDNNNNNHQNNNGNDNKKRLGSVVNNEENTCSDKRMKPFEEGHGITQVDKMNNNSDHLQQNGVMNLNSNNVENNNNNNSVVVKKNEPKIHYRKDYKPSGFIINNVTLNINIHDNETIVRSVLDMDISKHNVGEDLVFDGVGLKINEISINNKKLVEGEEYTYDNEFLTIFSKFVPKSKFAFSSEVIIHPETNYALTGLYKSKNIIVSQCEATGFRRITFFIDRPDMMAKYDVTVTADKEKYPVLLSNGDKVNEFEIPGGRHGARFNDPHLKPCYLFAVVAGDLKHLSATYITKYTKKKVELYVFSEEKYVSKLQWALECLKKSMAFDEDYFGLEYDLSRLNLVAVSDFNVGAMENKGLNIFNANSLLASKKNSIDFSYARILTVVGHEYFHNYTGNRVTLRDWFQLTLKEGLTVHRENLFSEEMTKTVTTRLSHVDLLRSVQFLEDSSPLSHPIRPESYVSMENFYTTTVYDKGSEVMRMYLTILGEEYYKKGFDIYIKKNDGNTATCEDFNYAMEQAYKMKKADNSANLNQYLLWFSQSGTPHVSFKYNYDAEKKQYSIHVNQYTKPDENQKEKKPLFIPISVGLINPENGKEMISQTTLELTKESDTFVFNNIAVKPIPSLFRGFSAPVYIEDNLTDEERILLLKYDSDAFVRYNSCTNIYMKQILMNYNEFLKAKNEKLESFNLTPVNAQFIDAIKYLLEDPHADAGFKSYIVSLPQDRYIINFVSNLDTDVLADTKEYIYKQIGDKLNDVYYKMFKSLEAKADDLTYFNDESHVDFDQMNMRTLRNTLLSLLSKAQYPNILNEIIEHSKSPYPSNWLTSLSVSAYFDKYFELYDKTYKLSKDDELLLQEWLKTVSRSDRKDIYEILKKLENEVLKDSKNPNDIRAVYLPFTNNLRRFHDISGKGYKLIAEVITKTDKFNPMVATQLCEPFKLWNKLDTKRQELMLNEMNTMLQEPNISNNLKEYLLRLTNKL

cells [14] = assay type: functional, cell-based
cells [15] = assay type: functional, cell-based; remark: listed apart in the source
Nonstructural protein 1 = Nonstructural protein 1 (Influenza A virus, UniProt Q194T2); assay type: functional, Influenza A virus (A/California/07/2009(H1N1))
Sequence of Nonstructural protein 1 (Q194T2 whole entry): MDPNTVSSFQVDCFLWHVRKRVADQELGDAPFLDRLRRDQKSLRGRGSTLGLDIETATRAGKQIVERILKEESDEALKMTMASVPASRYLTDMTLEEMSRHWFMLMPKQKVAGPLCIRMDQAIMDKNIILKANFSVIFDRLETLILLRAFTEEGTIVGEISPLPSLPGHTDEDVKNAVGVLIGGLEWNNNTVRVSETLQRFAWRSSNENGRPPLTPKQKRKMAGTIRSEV

## CC(=O)c1ccc(N2CCN(C(=O)c3ccc(Br)cc3)CC2)c(F)c1
[1]
  AC50: 0.182 µM (active)

## O=C(CSc1ccc2nnc(-c3ccccn3)n2n1)Nc1ccc2c(c1)OCO2
[2]
  AC50: 107 µM (active)

## O=C(Nc1nnc(C2=COCCO2)o1)c1ccc([N+](=O)[O-])cc1
[2]
  AC50: 101 µM (active)

## Cc1ccc2nc(-c3ccc(NC(=S)NC(=O)C(C)C)cc3)sc2c1
Melanocortin receptor 4
  IC50: > 64.6 µM (inactive)
[3]
  CC50: > 40 µM (active)
[4]
  IC50: > 64.6 µM (inactive)

## C#CCNc1c(C)c(C)nc2ncnn12
[5]
  IC50: 4.47 µM (active)
[6]
  IC50: 9.35 µM (active)

## CCCn1c2ccccc2c2cnn(CC(=O)NCCN(CC)CC)c(=O)c21
[5]
  IC50: 3.36 µM (active)
[6]
  IC50: 5.7 µM (active)

## CC1(C)CC(=O)C=C(c2ccc3ncccc3c2)C1
[1]
  AC50: 4.74 µM (active)

## Cc1cc(C(=O)CCl)c(C)n1CCc1ccc(F)cc1
Melanocortin receptor 4
  IC50: > 64.5 µM (inactive)
[4]
  IC50: > 64.5 µM (inactive)
[7]
  AC50: 4.25 µM (active)

## Cc1c(C(=O)O)cccc1-n1c(C)cc(/C=C2\C(=O)NC(=O)N(c3ccc4c(c3)OCO4)C2=O)c1C
[8]
  IC50: 18 µM (active)
[9]
  EC50: > 300 µM (not active)
[10]
  EC50: > 300 µM (not active)

## CCc1occc(=O)c1Oc1cc(NN2CCCCC2)c([N+](=O)[O-])cc1[N+](=O)[O-]
[11]
  IC50: 119 µM (inactive)

## O=C(Nc1ccc2nccnc2c1)c1cnccn1
[1]
  AC50: 6.04 µM (active)

## N#C/C(=C\Nc1ccccc1O)c1nc2ccccc2o1
[11]
  IC50: 155 µM (inactive)

## O=[N+]([O-])c1cc(NS(=O)(=O)c2ccc(Cl)nc2)ccc1Cl
[5]
  IC50: 3.35 µM (active)
[6]
  IC50: 2.4 µM (active)

## COc1ccc(Oc2c(OC)cc(NCc3ccc(CN)cc3)c3ncccc23)cc1
[12]
  IC50: 41.3 µM (active)
[8]
  IC50: 10.3 µM (active)
[13]
  IC50: 7.55 µM (active)

## O=[N+]([O-])c1cc(Br)cc(/C=N/c2ccc3c(c2)OCO3)c1O
[5]
  IC50: 10 µM (active)
[6]
  IC50: 9.12 µM (active)

## O=C(N/N=C/c1cc(Br)ccc1O)C(c1ccncc1)N1CCOCC1 (stereo not drawn)
Aminopeptidase N
  IC50: 12 µM (active)
[2]
  AC50: 78.4 µM (active)
Cells [14]
  EC50: 189 µM (active)
Cells [15]
  EC50: > 350 µM (not active)
Nonstructural protein 1
  IC50: 12.5 µM (active)

## C/C(CCC(=O)O)=N/Nc1ccc([N+](=O)[O-])cc1[N+](=O)[O-]
[11]
  IC50: 155 µM (inactive)
